# Laboratory results published in patent publication US9908895B2, “Tricyclic fused thiophene derivatives as JAK inhibitors” (Incyte Corporation, priority 2012, dated 2018).
# Tested on: human JAK1
# Experiment: In vitro JAK kinase assay (HTRF), JAK1
# Type: biochemical
# Settings: ratio of JAK2 IC50 to JAK1 IC50 at 1 mM ATP
# Experimental: Compounds herein were tested for inhibitory activity of JAK targets according to the following in vitro assay described in Park et al., Analytical Biochemistry 1999, 269, 94-104. The catalytic domains of human JAK1 (a.a. 837-1142), JAK2 (a.a. 828-1132) and JAK3 (a.a. 781-1124) were expressed using baculovirus in insect cells and purified. The catalytic activity of JAK1, JAK2 or JAK3 was assayed by measuring the phosphorylation of a biotinylated peptide. The phosphorylated peptide was detected by homogenous time resolved fluorescence (HTRF). IC50s of compounds were measured for each kinase in the 40 μL reactions that contain the enzyme, ATP and 500 nM peptide in 50 mM Tris (pH 7.8) buffer with 100 mM NaCl, 5 mM DTT, and 0.1 mg/mL (0.01%) BSA. For the 1 mM IC50 measurements, ATP concentration in the reactions was 1 mM. Reactions were carried out at room temperature for 1 hour and then stopped with 20 μL 45 mM EDTA, 300 nM SA-APC, 6 nM Eu-Py20 in assay buffer (Perkin Elmer, Boston, Mass.). Binding to the Europium labeled antibody took place for 40 minutes and HTRF signal was measured on a PHERA star plate reader (BMG, Cary, N.C.). The Example compounds were each tested in the Example A assay (see Table 1 for data for the compounds of the examples as tested by the assay of Example A at 1 mM ATP).
row,SMILES,JAK2/JAK1
1,"CC(C)c1nc2cnc3ccsc3c2n1[C@H]1CC[C@H](CC#N)OC1 [Example 42, [(2R,5S)-5-(2-Isopropyl-1H-imidazo[4,5-d]thieno[3,2-b]pyridin-1-yl)tetrahydro-2H-pyran-2-yl]acetonitrile]",>10
2,"N#CC[C@H]1CC[C@H](n2c(C3CC3)nc3cnc4ccsc4c32)CO1 [Example 43, [(2R,5S)-5-(2-Cyclopropyl-1H-imidazo[4,5-d]thieno[3,2-b]pyridin-1-yl)tetrahydro-2H-pyran-2-yl]acetonitrile]",>10
3,"C[C@@H](O)c1nc2cnc3ccsc3c2n1[C@@H]1CC[C@@H](CC#N)OC1 [Example 44, ((2S,5R)-5-{2-[(1R)-1-Hydroxyethyl]-1H-imidazo[4,5-d]thieno[3,2-b]pyridin-1-yl}tetrahydro-2H-pyran-2-yl)acetonitrile]",>10
4,"C[C@H](O)c1nc2cnc3ccsc3c2n1[C@H]1CC[C@H](CC#N)OC1 [Example 45, ((2R,5S)-5-{2-[(1S)-1-Hydroxyethyl]-1H-imidazo[4,5-d]thieno[3,2-b]pyridin-1-yl}tetrahydro-2H-pyran-2-yl)acetonitrile]",>10
5,"CCc1nc2cnc3ccsc3c2n1[C@H]1CC[C@H](CC#N)CC1 [Example 47, [trans-4-(2-Ethyl-1H-imidazo[4,5-d]thieno[3,2-b]pyridin-1-yl)cyclohexyl]acetonitrile]",>10
6,"Cc1nc2cnc3ccsc3c2n1[C@H]1CC[C@H](CC#N)CC1 [Example 48, [trans-4-(2-Methyl-1H-imidazo[4,5-d]thieno[3,2-b]pyridin-1-yl)cyclohexyl]acetonitrile]",>7
7,"C[C@@H](O)c1nc2cnc3ccsc3c2n1[C@H]1CC[C@@H](CC#N)C1.O=C(O)C(F)(F)F [Example 49, ((1R,3S)-3-{2-[(1R)-1-Hydroxyethyl]-1H-imidazo[4,5-d]thieno[3,2-b]pyridin-1-yl}cyclopentyl)acetonitrile trifluoroacetate]",>10
8,"CCOC(=O)N1CCC[C@H](n2c([C@@H](C)O)nc3cnc4ccsc4c32)C1 [Example 50, Ethyl(3S)-3-{2-[(1R)-1-hydroxyethyl]-1H-imidazo[4,5-d]thieno[3,2-b]pyridin-1-yl}piperidine-1-carboxylate]",>10
9,"C[C@@H](O)c1nc2cnc3ccsc3c2n1[C@H]1CCCN(C(=O)CC#N)C1.O=C(O)C(F)(F)F [Example 51, 3-((3S)-3-{2-[(1R)-1-Hydroxyethyl]-1H-imidazo[4,5-d]thieno[3,2-b]pyridin-1-yl}piperidin-1-yl)-3-oxopropanenitrile trifluoroacetate]",>10
10,"C[C@@H](O)c1nc2cnc3ccsc3c2n1[C@H]1CCCN(C(=O)CCC(F)(F)F)C1 [Example 52, (1R)-1-{1-[(3S)-1-(4,4,4-Trifluorobutanoyl)piperidin-3-yl]-1H-imidazo[4,5-d]thieno[3,2-b]pyridin-2-yl}ethanol]",>10
11,"C[C@@H](O)c1nc2cnc3ccsc3c2n1[C@H]1CCCN(C(=O)CCc2cn[nH]c2)C1 [Example 53, (1R)-1-(1-{(3S)-1-[3-(1H-Pyrazol-4-yl)propanoyl]piperidin-3-yl}-1H-imidazo[4,5-d]thieno[3,2-b]pyridin-2-yl)ethanol]",>10

# Other lines, results leading:
row,JAK2/JAK1,SMILES
1,>10,"C[C@@H](O)c1nc2cnc3ccsc3c2n1[C@H]1CCCN(C(=O)CCc2cccnc2)C1 [Example 54, (1R)-1-{1-[(3S)-1-(3-Pyridin-3-ylpropanoyl)piperidin-3-yl]-1H-imidazo[4,5-d]thieno[3,2-b]pyridin-2-yl}ethanol]"
2,>10,"CC(CC(=O)N1CCC[C@H](n2c([C@@H](C)O)nc3cnc4ccsc4c32)C1)c1ccccc1 (stereo partly drawn) [Example 55, (1R)-1-{1-[(3S)-1-(3-Phenylbutanoyl)piperidin-3-yl]-1H-imidazo[4,5-d]thieno[3,2-b]pyridin-2-yl}ethanol]"
3,>10,"C[C@@H](O)c1nc2cnc3ccsc3c2n1[C@H]1CCCN(CCC#N)C1 [Example 56, 3-((3S)-3-{2-[(1R)-1-Hydroxyethyl]-1H-imidazo[4,5-d]thieno[3,2-b]pyridin-1-yl}piperidin-1-yl)propanenitrile]"
4,>10,C[C@@H](O)c1nc2cnc3ccsc3c2n1[C@H]1CCCN(C(=O)CCc2ccccc2)C1 [Example 57]
5,>10,"C[C@@H](O)c1nc2cnc3ccsc3c2n1[C@H]1CCCN(C(=O)CCC#N)C1 [Example 58, 4-((3S)-3-{2-[(1R)-1-Hydroxyethyl]-1H-imidazo[4,5-d]thieno[3,2-b]pyridin-1-yl}piperidin-1-yl)-4-oxobutanenitrile]"
6,>10,"C[C@@H](O)c1nc2cnc3ccsc3c2n1[C@H]1CCCN(C(=O)CCCC#N)C1 [Example 59, 5-((3S)-3-{2-[(1R)-1-Hydroxyethyl]-1H-imidazo[4,5-d]thieno[3,2-b]pyridin-1-yl}piperidin-1-yl)-5-oxopentanenitrile]"
7,>10,"C[C@@H](O)c1nc2cnc3ccsc3c2n1C1CCN(CCCC(F)(F)F)CC1 [Example 60, (1R)-1-{1-[1-(4,4,4-Trifluorobutyl)piperidin-4-yl]-1H-imidazo[4,5-d]thieno[3,2-b]pyridin-2-yl}ethanol]"
8,>10,"C[C@@H](O)c1nc2cnc3ccsc3c2n1C1CCN(CC#N)CC1.O=C(O)C(F)(F)F [Example 61, (4-{2-[(1R)-1-Hydroxyethyl]-1H-imidazo[4,5-d]thieno[3,2-b]pyridin-1-yl}piperidin-1-yl)acetonitrile trifluoroacetate]"
9,>10,"C[C@@H](O)c1nc2cnc3ccsc3c2n1[C@H]1CCN(CCC#N)C1 [Example 62, 3-((3S)-3-{2-[(1R)-1-Hydroxyethyl]-1H-imidazo[4,5-d]thieno[3,2-b]pyridin-1-yl}pyrrolidin-1-yl)propanenitrile]"
10,>6,"C[C@@H](O)c1nc2cnc3ccsc3c2n1[C@H]1CCN(C(=O)CC#N)C1 [Example 63, 3-((3S)-3-{2-[(1R)-1-Hydroxyethyl]-1H-imidazo[4,5-d]thieno[3,2-b]pyridin-1-yl}pyrrolidin-1-yl)-3-oxopropanenitrile]"
11,>10,"C[C@@H](O)c1nc2cnc3ccsc3c2n1[C@H]1CCN(CCCC(F)(F)F)C1 [Example 64, (1R)-1-{1-[(3S)-1-(4,4,4-Trifluorobutyl)pyrrolidin-3-yl]-1H-imidazo[4,5-d]thieno[3,2-b]pyridin-2-yl}ethanol]"
12,>10,"C[C@@H](O)c1nc2cnc3ccsc3c2n1[C@H]1CCN(CCCC#N)C1 [Example 65, 4-((3S)-3-{2-[(1R)-1-Hydroxyethyl]-1H-imidazo[4,5-d]thieno[3,2-b]pyridin-1-yl}pyrrolidin-1-yl)butanenitrile]"
13,>10,"C[C@@H](O)c1nc2cnc3ccsc3c2n1[C@H]1CCN(CCCCC#N)C1 [Example 66, 5-((3S)-3-{2-[(1R)-1-Hydroxyethyl]-1H-imidazo[4,5-d]thieno[3,2-b]pyridin-1-yl}pyrrolidin-1-yl)pentanenitrile]"
14,>10,"C[C@@H](O)c1nc2cnc3ccsc3c2n1[C@H]1CC[C@H](CC#N)[C@H](N)C1 [Example 67, ((1R,2R,4S)-2-Amino-4-{2-[(1R)-1-hydroxyethyl]-1H-imidazo[4,5-d]thieno[3,2-b]pyridin-1-yl}cyclohexyl)acetonitrile]"
